pEC50: −log10 of the molar value.
These compounds were tested against T1, CXCR7 (Homo sapiens, UniProt P25106) (assay: PathHunter CHO-K1 CXCR7 b-arrestin recruitment assay (CXCR7 agonistic activity)). Conditions: PathHunter CHO-K1 CXCR7 b-arrestin cell line.
T1 construct: host or cells: CHO-K1 (PathHunter CHO-K1 CXCR7 b-arrestin cell line, stably transfected)
Assay type: cell-based
Summary of the method: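 Stable CHO-K1 line with C-terminally ProLink-tagged CXCR7 and β-arrestin 2–EA fusion; β-arrestin recruitment restores β-gal activity, read by chemiluminescence after 1 h RT detection. Cells seeded 24 h, starved in OPTIMEM 3–4 h, exposed to compounds 90 min at 37 °C in HBSS/HEPES/BSA. Geometric-mean EC50 from repeated measurements.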

T1 sequence (P25106 whole entry): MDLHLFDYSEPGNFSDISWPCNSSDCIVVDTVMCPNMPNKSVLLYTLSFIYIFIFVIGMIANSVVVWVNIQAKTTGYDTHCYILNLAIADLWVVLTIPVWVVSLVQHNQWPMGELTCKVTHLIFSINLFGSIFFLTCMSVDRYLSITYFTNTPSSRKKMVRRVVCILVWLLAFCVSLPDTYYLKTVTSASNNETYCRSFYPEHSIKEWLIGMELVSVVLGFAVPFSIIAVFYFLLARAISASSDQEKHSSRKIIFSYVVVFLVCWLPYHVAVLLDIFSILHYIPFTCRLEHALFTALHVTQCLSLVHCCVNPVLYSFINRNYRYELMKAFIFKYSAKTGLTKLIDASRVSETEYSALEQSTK
T1 sequence (P32121 whole entry partner): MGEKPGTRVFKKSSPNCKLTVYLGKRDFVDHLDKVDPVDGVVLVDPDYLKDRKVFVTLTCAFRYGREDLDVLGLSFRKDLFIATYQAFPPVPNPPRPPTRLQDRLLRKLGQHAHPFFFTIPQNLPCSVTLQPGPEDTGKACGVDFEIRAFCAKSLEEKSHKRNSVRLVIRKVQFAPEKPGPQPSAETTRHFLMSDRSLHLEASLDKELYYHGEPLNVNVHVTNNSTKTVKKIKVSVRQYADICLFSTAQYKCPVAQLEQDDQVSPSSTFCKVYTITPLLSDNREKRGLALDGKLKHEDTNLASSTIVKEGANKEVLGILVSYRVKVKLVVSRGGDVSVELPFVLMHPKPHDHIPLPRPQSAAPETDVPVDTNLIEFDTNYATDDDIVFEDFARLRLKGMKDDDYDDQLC

Row | Compound | pEC50
1 | CN(C)CCN(Cc1ccccc1Cl)C(=O)CNc1cc(C(F)(F)F)cc2c1CCN(CC1CC1)C2 [Example 295, N-(2-Chloro-benzyl)-2-(2-cyclopropylmethyl-7-trifluoromethyl-1,2,3,4-tetrahydro-isoquinolin-5-ylamino)-N-(2-dimethylamino-ethyl)-acetamide] | 6.39
2 | CN(C)CCN(Cc1ccccc1C(F)(F)F)C(=O)CNc1cc(C(F)(F)F)cc2c1CCN(CC1CC1)C2 [Example 296, 2-(2-Cyclopropylmethyl-7-trifluoromethyl-1,2,3,4-tetrahydro-isoquinolin-5-ylamino)-N-(2-dimethylamino-ethyl)-N-(2-trifluoromethyl-benzyl)-acetamide] | 6.37
3 | COCCN1CCc2c(cccc2NCC(=O)N(CCN(C)C(=O)OC(C)(C)C)Cc2ccccc2C(F)(F)F)C1 [Example 297, {2-[{2-[2-(2-Methoxy-ethyl)-1,2,3,4-tetrahydro-isoquinolin-5-ylamino]-acetyl}-(2-trifluoromethyl-benzyl)-amino]-ethyl}-methyl-carbamic acid tert-butyl ester] | 6.34
4 | COCCN1CCc2c(cccc2NCC(=O)N(CCC(C)(C)C)Cc2ncccc2C)C1 [Example 298, N-(3,3-Dimethyl-butyl)-2-[2-(2-methoxy-ethyl)-1,2,3,4-tetrahydro-isoquinolin-5-ylamino]-N-(3-methyl-pyridin-2-ylmethyl)-acetamide] | 6.94
5 | COCCN1CCc2c(cccc2NCC(=O)N(Cc2ccccc2C(F)(F)F)CC(O)COC)C1 (stereo not shown) [Example 299, N-(2-Hydroxy-3-methoxy-propyl)-2-[2-(2-methoxy-ethyl)-1,2,3,4-tetrahydro-isoquinolin-5-ylamino]-N-(2-trifluoromethyl-benzyl)-acetamide] | 6.54
6 | COCCN1CCc2c(cccc2NCC(=O)N(CCN2CCC(F)(F)CC2)Cc2ncccc2C(F)(F)F)C1 [Example 300, N-[2-(4,4-Difluoro-piperidin-1-yl)-ethyl]-2-[2-(2-methoxy-ethyl)-1,2,3,4-tetrahydro-isoquinolin-5-ylamino]-N-(3-trifluoromethyl-pyridin-2-ylmethyl)-acetamide] | 7.02
7 | COCCN1CCc2c(cccc2NCC(=O)N(Cc2ccccc2C(F)(F)F)CC(C)(C)O)C1 [Example 301, N-(2-Hydroxy-2-methyl-propyl)-2-[2-(2-methoxy-ethyl)-1,2,3,4-tetrahydro-isoquinolin-5-ylamino]-N-(2-trifluoromethyl-benzyl)-acetamide] | 6.68
8 | COCCN1CCc2c(cccc2NCC(=O)N(CCN(C)CCF)Cc2ccccc2C(F)(F)F)C1 [Example 302, N-{2-[(2-Fluoro-ethyl)-methyl-amino]-ethyl}-2-[2-(2-methoxy-ethyl)-1,2,3,4-tetrahydro-isoquinolin-5-ylamino]-N-(2-trifluoromethyl-benzyl)-acetamide] | 7.57
9 | COCCN1CCc2c(cccc2NCC(=O)N(Cc2ccccc2C(F)(F)F)CC2(C)COC2)C1 [Example 303, 2-[2-(2-Methoxy-ethyl)-1,2,3,4-tetrahydro-isoquinolin-5-ylamino]-N-(3-methyl-oxetan-3-ylmethyl)-N-(2-trifluoromethyl-benzyl)-acetamide] | 6.61
10 | COCCN1CCc2c(cccc2NCC(=O)N(CCC(C)(C)O)Cc2ccccc2C(F)(F)F)C1 [Example 304, N-(3-Hydroxy-3-methyl-butyl)-2-[2-(2-methoxy-ethyl)-1,2,3,4-tetrahydro-isoquinolin-5-ylamino]-N-(2-trifluoromethyl-benzyl)-acetamide] | 6.51
11 | COCCN1CCc2c(cccc2NCC(=O)N(CCN2CCC(F)(F)CC2)Cc2ncccc2Cl)C1 [Example 305, N-(3-Chloro-pyridin-2-ylmethyl)-N-[2-(4,4-difluoro-piperidin-1-yl)-ethyl]-2-[2-(2-methoxy-ethyl)-1,2,3,4-tetrahydro-isoquinolin-5-ylamino]-acetamide] | 6.64
12 | COCCN1CCc2c(cccc2NCC(=O)N(CCN(C)C)Cc2ncccc2Cl)C1 [Example 306, N-(3-Chloro-pyridin-2-ylmethyl)-N-(2-dimethylamino-ethyl)-2-[2-(2-methoxy-ethyl)-1,2,3,4-tetrahydro-isoquinolin-5-ylamino]-acetamide] | 7.41

Second part, the compound after the results:

Row | pEC50 | Compound
13 | 6.37 | COCCN1CCc2c(cccc2NCC(=O)N(Cc2ncccc2Cl)CC(C)(C)O)C1 [Example 307, N-(3-Chloro-pyridin-2-ylmethyl)-N-(2-hydroxy-2-methyl-propyl)-2-[2-(2-methoxy-ethyl)-1,2,3,4-tetrahydro-isoquinolin-5-ylamino]-acetamide]
14 | 7.55 | C#CCN1CCc2c(cccc2NCC(=O)N(CCN(C)C)Cc2ccccc2C(F)(F)F)C1 [Example 308, N-(2-Dimethylamino-ethyl)-2-(2-prop-2-ynyl-1,2,3,4-tetrahydro-isoquinolin-5-ylamino)-N-(2-trifluoromethyl-benzyl)-acetamide]
15 | 7.62 | CCN1Cc2cccc(NCC(=O)N(CCN(C)C)Cc3ccccc3C(F)(F)F)c2CC1=O [Example 309, N-(2-Dimethylamino-ethyl)-2-(2-ethyl-3-oxo-1,2,3,4-tetrahydro-isoquinolin-5-ylamino)-N-(2-trifluoromethyl-benzyl)-acetamide]
16 | 7.11 | CCN1Cc2cccc(NCC(=O)N(CCN(C)C)Cc3ncccc3C(F)(F)F)c2CC1=O [Example 310, N-(2-Dimethylamino-ethyl)-2-(2-ethyl-3-oxo-1,2,3,4-tetrahydro-isoquinolin-5-ylamino)-N-(3-trifluoromethyl-pyridin-2-ylmethyl)-acetamide]
17 | 7.62 | CCN1Cc2cccc(NCC(=O)N(CCN3CCCC3)Cc3ccccc3C(F)(F)F)c2CC1=O [Example 311, 2-(2-Ethyl-3-oxo-1,2,3,4-tetrahydro-isoquinolin-5-ylamino)-N-(2-pyrrolidin-1-yl-ethyl)-N-(2-trifluoromethyl-benzyl)-acetamide]
18 | 7.43 | CC(C)CN1Cc2cccc(NCC(=O)N(CCN(C)C)Cc3ccccc3C(F)(F)F)c2CC1=O [Example 312, N-(2-Dimethylamino-ethyl)-2-(2-isobutyl-3-oxo-1,2,3,4-tetrahydro-isoquinolin-5-ylamino)-N-(2-trifluoromethyl-benzyl)-acetamide]
19 | 7.51 | CC(C)CN1Cc2cccc(NCC(=O)N(CCN(C)C)Cc3ncccc3C(F)(F)F)c2CC1=O [Example 313, N-(2-Dimethylamino-ethyl)-2-(2-isobutyl-3-oxo-1,2,3,4-tetrahydro-isoquinolin-5-ylamino)-N-(3-trifluoromethyl-pyridin-2-ylmethyl)-acetamide]
20 | 7.64 | CC(C)CN1Cc2cccc(NCC(=O)N(CCN3CCCC3)Cc3ccccc3C(F)(F)F)c2CC1=O [Example 314, 2-(2-Isobutyl-3-oxo-1,2,3,4-tetrahydro-isoquinolin-5-ylamino)-N-(2-pyrrolidin-1-yl-ethyl)-N-(2-trifluoromethyl-benzyl)-acetamide]
21 | 8.30 | CN(C)CCN(Cc1ccccc1C(F)(F)F)C(=O)CNc1cccc2c1CCN(CC1CC1)C2=O [Example 315, 2-(2-Cyclopropylmethyl-1-oxo-1,2,3,4-tetrahydro-isoquinolin-5-ylamino)-N-(2-dimethylamino-ethyl)-N-(2-trifluoromethyl-benzyl)-acetamide]
22 | 6.43 | COCCN1CCc2c(/C=C/C(=O)N(Cc3ccccc3)C3CCS(=O)(=O)C3)cccc2C1 (stereo not shown) [Example 316, (E)-N-Benzyl-N-(1,1-dioxo-tetrahydro-1l6-thiophen-3-yl)-3-[2-(2-methoxy-ethyl)-1,2,3,4-tetrahydro-isoquinolin-5-yl]-acrylamide]
